Assay results from patent US10059721B2, “Substituted thieno[3,2-b]pyrazines for inhibiting cancer cell proliferation and inducing cancer cell apoptosis” (DONGGUK UNIVERSITY INDUSTRY-ACADEMIC COOPERATION FOUNDATION, priority 2014, dated 2018).

How the values were obtained:
Assay type in all cases: cell-based
[1] = system: MDA-MB-231 (breast cancer) cell line; assay: Cell growth inhibition experiment (SRB), MDA-MB-231; conditions: Homo sapiens, incubated for 96 hours, read-out: IC50 (μM) of cancer cell lines MDA-MB-231
Experimental: (§1) The cell lines below were used in order to confirm the efficacy of the compounds synthesized in Examples 1 to 27. Human PANC-1 (pancreatic cancer) and MDA-MB-231 (breast cancer) cell lines were obtained from American Type Culture Collection (ATCC; Manassas, Va.); and HN31 (head and neck cancer) and UMRC2 (kidney cancer) cell lines were secured from the United States National Institutes of Health (Bethesda, Md.). The MDA-MB-231, UMRC2, HN31, and PANC-1 cell lines were cultured in Dulbecco modified Eagle medium (DMEM) containing FBS (10%), HEPES (10 mM), penicillin (100 U/mL), and streptomycin (100 μg/mL). All cell lines were cultured in an incubator (37° C., 5% CO2).
(§2) The 4-(aryl)-N-(2-alkoxythieno[3,2-b]pyrazin-3-yl)-piperazin-1-carboxamide derivative compounds synthesized according to Examples 1 to 27 of the present invention were treated with various human tissue-derived cancer cell lines cultured according to Experimental Example 1, and thus the inhibitory effect of the growth of human cancer cells was confirmed. The cell growth inhibition experiment was conducted using sulforhodamine B (SRB) technique (Skehan et al., J. National Cancer Institute, 1990, 82: 1107-1112). Specifically, each cell line was seeded in a 96-well plate at a density of 2 to 3×10^3 cells/well, cultured overnight, and then treated with the 4-(aryl)-N-(2-alkoxythieno[3,2-b]pyrazin-3-yl)-piperazin-1-carboxamide derivative compounds of the present invention. The experiment was repeated 3 times for each compound. Cells treated with each compound were additionally incubated for 96 hours, fixed with 10% trichloroacetic acid (TCA), and then left at 4° C. for 1 hour. The resultant was washed 3 times with distilled water. Thereafter, each cell was treated with 0.4% sulforhodamine B dissolved in 1% acetic acid, stained for 30 minutes, and then washed 4 times with 1% acetic acid. The resultant was dried in the air. After shaking the resultant in Tris solution (10 mM) for 5 minutes, the absorbance was measured at 530 nm using a Benchmark Plus Microplate reader (Bio-Rad Laboratories, Hercules, Calif.).
(§3) In order to convert the OD530 value to the number of viable cells per each well, the measured OD530 value was compared to the standard OD530-vs.-cell number curve of each cell line. The percent survival was calculated using the following formula: % survival=Nlive cells(test)/Nlive cells(control)×100
(§4) IC50 values were calculated by nonlinear regression analysis.

HT29 = assay: Cell growth inhibition experiment (SRB), HT29; conditions: Homo sapiens, HT-29, incubated for 96 hours, read-out: IC50 (μM) of cancer cell lines HT29
Experimental: as §2, §3, §4

HEK293 = assay: Cell growth inhibition experiment (SRB), HEK293; conditions: Homo sapiens, incubated for 96 hours, read-out: IC50 (μM) of cancer cell lines HEK293
Experimental: as §2, §3, §4

HUVEC = assay: Cell growth inhibition experiment (SRB), HUVEC; conditions: Homo sapiens, incubated for 96 hours, read-out: IC50 (μM) of cancer cell lines HUVEC
Experimental: as §2, §3, §4

[2] = system: HN31 (head and neck cancer) cell line; assay: Cell growth inhibition experiment (SRB), HN31; conditions: Homo sapiens, incubated for 96 hours, read-out: IC50 (μM) of cancer cell lines HN31
Experimental: as §1, §2, §3, §4

[3] = system: UMRC2 (kidney cancer) cell line; assay: Cell growth inhibition experiment (SRB), UMRC2; conditions: Homo sapiens, incubated for 96 hours, read-out: IC50 (μM) of cancer cell lines UMRC2
Experimental: as §1, §2, §3, §4

A549 = assay: Cell growth inhibition experiment (SRB), A549; conditions: Homo sapiens, incubated for 96 hours, read-out: IC50 (μM) of cancer cell lines A549
Experimental: as §2, §3, §4

SK-OV-3 = assay: Cell growth inhibition experiment (SRB), SK-OV-3; conditions: Homo sapiens, incubated for 96 hours, read-out: IC50 (μM) of cancer cell lines SK-OV-3
Experimental: as §2, §3, §4

[4] = system: PANC-1 (pancreatic cancer) cell line; assay: Cell growth inhibition experiment (SRB), PANC-1; conditions: Homo sapiens, incubated for 96 hours, read-out: IC50 (μM) of cancer cell lines PANC-1
Experimental: as §1, §2, §3, §4

## COc1cc(F)cc(N2CCN(C(=O)Nc3nc4sccc4nc3OC)CC2)c1 [Example 22, 4-(3-fluoro-5-methoxyphenyl)-N-(2-methoxythieno[3,2-b]pyrazin-3-yl)piperazin-1-carboxamide]
[1]
  IC50: 0.52 µM
HT29
  IC50: 1.12 µM
HEK293
  IC50: 1.12 µM
HUVEC
  IC50: 1.36 µM
[2]
  IC50: 0.45 µM
[3]
  IC50: 0.21 µM
A549
  IC50: 2.21 µM
SK-OV-3
  IC50: 1.36 µM
[4]
  IC50: 0.63 µM

## COc1cc(OC(F)(F)F)cc(N2CCN(C(=O)Nc3nc4sccc4nc3OC)CC2)c1 [Example 25, 4-(3-methoxy-5-(trifluoromethoxy)phenyl)-N-(2-methoxythieno[3,2-b]pyrazin-3-yl)piperazin-1-carboxamide]
[1]
  IC50: 0.15 µM
HT29
  IC50: 0.25 µM
HEK293
  IC50: 0.36 µM
HUVEC
  IC50: 0.13 µM
[2]
  IC50: 0.17 µM
[3]
  IC50: < 2.5 µM
A549
  IC50: 0.22 µM
SK-OV-3
  IC50: 0.63 µM
[4]
  IC50: 0.08 µM
